13 compounds from US20260272924A1, “ISOINDOLINE DERIVATIVE, BENZOINDOLE DERIVATIVE AND USE THEREOF” (SHANGHAI HELIOSON PHARMACEUTICAL CO., LTD., priority 2023, published 2026) can be followed below.

Molecules are shown by their SMILES.

The test system of this assay is NCI-H929 multiple myeloma cells. The experiment in a line: Cell Titer-GLO (CTG) assay for proliferation of NCI-H929 cells. Format: cell-based. As to conditions: Homo sapiens, 72 hours. Put shortly: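 NCI-H929 cells, 5000/well, treated next day with compound from 0.00512 to 400 nM (5-fold steps, duplicates) for 72 h at 37° C. Viability by CellTiter-Glo luminescence, normalised to 0.1% DMSO and medium blank; IC50 and maximal inhibition from nonlinear dose-response regression.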
For the compound `Cc1ncn(-c2nc(N3CCN(Cc4ccc(Cc5ccc6c7c(cccc57)C(=O)N6C5CCC(=O)NC5=O)cc4)CC3)cc(C(F)(F)F)n2)n1` (stereo not shown) [Example 69, 3-(6-(4-((4-(2-(3-methyl-1H-1,2,4-triazol-1-yl)-6-(trifluoromethyl)pyrimidin-4-yl)piperazin-1-yl)methyl)benzyl)-2-oxobenzo[cd]indol-1(2H)-yl)piperidin-2,6-dione], the IC50 turned out to be 40 pM.

Compound `Cc1nc(N2CCN(Cc3ccc(Cc4ccc5c6c(cccc46)C(=O)N5C4CCC(=O)NC4=O)cc3)CC2)cc(-n2cnc(C(F)(F)F)n2)n1` (stereo not shown) [Example 70, 3-(6-(4-((4-(2-methyl-6-(3-(trifluoromethyl)-1H-1,2,4-triazol-1-yl)pyrimidin-4-yl)piperazin-1-yl)methyl)benzyl)-2-oxobenzo[cd]indol-1(2H)-yl)piperidin-2,6-dione] registered an IC50 of 100 pM.

In turn, `Cc1nc(N2CCN(Cc3ccc(COc4cccc5c4CN([C@H]4CCC(=O)NC4=O)C5=O)cc3)CC2)cc(-n2cnc(C)n2)n1` [Example 71, (S)-3-(4-((4-((4-(2-methyl-6-(3-methyl-1H-1,2,4-triazol-1-yl)pyrimidin-4-yl)piperazin-1-yl)methyl)benzyl)oxy)-1-oxoisoindolin-2-yl)piperidin-2,6-dione] displayed an IC50 of 100 pM.

Turning to `Cc1nc(N2CCN(Cc3ccc(COc4cccc5c4CN([C@H]4CCC(=O)NC4=O)C5=O)cc3)CC2)cc(-n2cnc(C(F)(F)F)c2)n1` [Example 72, (S)-3-(4-((4-((4-(2-methyl-6-(4-(trifluoromethyl)-1H-imidazol-1-yl)pyrimidin-4-yl)piperazin-1-yl)methyl)benzyl)oxy)-1-oxoisoindolin-2-yl)piperidin-2,6-dione], half-maximal inhibition (IC50) was put at 100 pM. That is a sub-nanomolar value.

With `Cc1nc(N2CCN(Cc3ccc(Cc4ccc5c6c(cccc46)C(=O)N5C4CCC(=O)NC4=O)cc3)CC2)cc(-n2cc(C(F)(F)F)nn2)n1` (stereo not shown) [Example 73, 3-(6-(4-((4-(2-methyl-6-(4-(trifluoromethyl)-1H-1,2,3-triazol-1-yl)pyrimidin-4-yl)piperazin-1-yl)methyl)benzyl)-2-oxobenzo[cd]indol-1(2H)-yl)piperidin-2,6-dione], it took 30 pM to reach half-maximal inhibition (IC50).

`O=C1CCC(N2C(=O)c3cccc4c(Cc5ccc(CN6CCN(c7cc(C(F)(F)F)nc(-n8cnc(Cl)c8)n7)CC6)cc5)ccc2c34)C(=O)N1` (stereo not shown) [Example 74, 3-(6-(4-((4-(2-(4-chloro-1H-imidazol-1-yl)-6-(trifluoromethyl)pyrimidin-4-yl)piperazin-1-yl)methyl)benzyl)-2-oxobenzo[cd]indol-1(2H)-yl)piperidin-2,6-dione] returned an IC50 of 100 pM.

`N#Cc1cn(-c2nc(N3CCN(Cc4ccc(Cc5ccc6c7c(cccc57)C(=O)N6C5CCC(=O)NC5=O)cc4)CC3)cc(C(F)(F)F)n2)cn1` (stereo not shown) [Example 75, 3-(6-(4-((4-(2-(4-cyano-1H-imidazol-1-yl)-6-(trifluoromethyl)pyrimidin-4-yl)piperazin-1-yl)methyl)benzyl)-2-oxobenzo[cd]indol-1(2H)-yl)piperidin-2,6-dione]: the IC50 came out at 20 pM.

In turn, `Cc1nc(N2CCN(Cc3ccc(Cc4ccc5c6c(cccc46)C(=O)N5C4CCC(=O)NC4=O)cc3)CC2)cc(-n2ncc(C(F)(F)F)n2)n1` (stereo not shown) [Example 76, 3-(6-(4-((4-(2-methyl-6-(4-(trifluoromethyl)-2H-1,2,3-triazol-2-yl)pyrimidin-4-yl)piperazin-1-yl)methyl)benzyl)-2-oxobenzo[cd]indol-1(2H)-yl)piperidin-2,6-dione] gave an IC50 of 100 pM. This IC50 is about 5-fold higher than that of the compound before.

Compound `Cc1nc(N2CCN(C3CN(Cc4ccc(COc5cccc6c5CN([C@H]5CCC(=O)NC5=O)C6=O)cc4)C3)CC2)cc(-n2cnc(C)n2)n1` [Example 77, (S)-3-(4-((4-((3-(4-(2-methyl-6-(3-methyl-1H-1,2,4-triazol-1-yl)pyrimidin-4-yl)piperazin-1-yl)azetidin-1-yl)methyl)benzyl)oxy)-1-oxoisoindolin-2-yl)piperidin-2,6-dione] yielded an IC50 of 100 pM.

Take `Cc1nc(N2CCN(C3CN(Cc4ccc(COc5cccc6c5CN([C@H]5CCC(=O)NC5=O)C6=O)cc4)C3)CC2)cc(-n2cnc(C(F)(F)F)c2)n1` [Example 78, (S)-3-(4-((4-((3-(4-(2-methyl-6-(4-(trifluoromethyl)-1H-imidazol-1-yl)pyrimidin-4-yl)piperazin-1-yl)azetidin-1-yl)methyl)benzyl)oxy)-1-oxoisoindolin-2-yl)piperidin-2,6-dione]: the IC50 is 100 pM.

Consider `CC(C)N1CCN=C1c1cccc(N2CCN(Cc3ccc(Cc4ccc5c6c(cccc46)C(=O)N5C4CCC(=O)NC4=O)cc3)CC2)n1` (stereo not shown) [Example 79, 3-(6-(4-((4-(6-(1-isopropyl-4,5-dihydro-1H-imidazol-2-yl)pyridin-2-yl)piperazin-1-yl)methyl)benzyl)-2-oxobenzo[cd]indol-1(2H)-yl)piperidin-2,6-dione], for which the half-inhibitory concentration (IC50) turned out to be 1600 pM.

`O=C1CC[C@H](N2Cc3c(OCc4ccc(CN5CCN(c6ccnc(-c7cncs7)n6)CC5)cc4)cccc3C2=O)C(=O)N1` [Example 80, (S)-3-(1-oxo-4-((4-((4-(2-(thiazol-5-vi)pyrimidin-4-yl)piperazin-1-yl)methyl)benzyl)oxy)isoindolin-2-yl)piperidin-2,6-dione] gave an IC50 of 400 pM.

In turn, `[2H]C([2H])(c1ccc(Cc2ccc3c4c(cccc24)C(=O)N3C2CCC(=O)NC2=O)cc1)N1CCN(c2cc(-n3cnc(C(F)(F)F)c3)nc(C)n2)CC1` (stereo not shown) [Example 82, 3-(6-(4-((4-(2-methyl-6-(4-(trifluoromethyl)-1H-imidazol-1-yl)pyrimidin-4-yl)piperazin-1-yl)methyl-d2)benzyl)-2-oxobenzo[cd]indol-1(2H)-yl)piperidin-2,6-dione] registered an IC50 of 20 pM.

As a reminder, the IC50 is the concentration that inhibits the measured activity by half. Lower therefore signals higher potency.
